Assays:
INS-1e cells = experiment: Glucose-stimulated insulin release in INS-1e cells; format: cell-based, rat; details: INS-1e cells incubated 48 h with physiological concentrations of metabolite, then 3.3, 11, 20 mM glucose or 20 mM glucose+10 mM arginine, FIG. 2
Experimental: Clonal INS-1e cells, derived and selected from a parental rat insulinoma INS-1 cell line (University of Geneva, Geneva, Switzerland), were grown in monolayer culture in RPMI 1640 medium containing 11.1 mM glucose. The culture medium was supplemented with 10% heat-inactivated fetal calf serum, 1 mM sodium pyruvate, 10 mM HEPES, 2 mM glutamine, 50 μmol/liter β-mercaptoethanol, 100 U/ml penicillin, and 100 μg/ml streptomycin. Cells were cultured at 37 C in a humidified 95% air-5% CO2 atmosphere. Cells were seeded onto wells at a density of 1.5×10^5 cells/well at least 96 h before using them in the insulin secretion experiments. Tissue culture reagents were obtained from Life Technologies, Inc. Invitrogen (Basel, Switzerland).
The insulin secretory response to glucose was tested in INS-1e cells. When cells had reached approximately 80% confluence, cells were incubated for 48 h in fresh RPMI 1640 medium containing 11.1 mM glucose, in the presence or absence of different physiological concentrations of metabolites alpha-hydroxybutyrate (2-HB) (Sigma-Aldrich) and linoleoyl-glycerophosphocholine (L-GPC) (Avanti Polar Lipids). Next, cells were maintained for 1 h in glucose-free Krebs-Ringer bicarbonate HEPES buffer containing 135 mm NaCl, 3.6 mm KCl, 5 mm NaHCO3, 0.5 mm Na H2PO4, 0.5 mm MgCl2, 1.5 mm CaCl2, 10 mm HEPES, and BSA 0.1% (glucose-free; pH 7.4; starvation period) and then washed with glucose-free Krebs-Ringer bicarbonate-HEPES buffer and subsequently incubated for […] with Krebs-Ringer bicarbonate-HEPES buffer containing 3.3, 11, 20 mM glucose, or 20 mM glucose+10 mM arginine. At the end of incubation, supernatants were collected to measure insulin concentration (Linco Research, St. Charles, Mo.). Cellular insulin contents were determined in acid-ethanol extracts. The insulin secretory response to glucose was expressed as the ratio of insulin concentration in the supernatant to the cellular insulin content.

[1] = Beta-cell biomarker levels in fasted plasma in response to pioglitazone therapy in IGT subjects; format: in vivo, human; details: pioglitazone 45 mg/day, 2.4 years, baseline vs study end
Experimental: In another study, the relationship between changes in the IS/IR Disposition index and changes in the levels of the beta-cell function biomarkers, AHB and LGPC following drug treatment were determined. The study cohort consisted of 431 IGT subjects (FPG=105, 2-h PG [OGTT]=168, HbA1C=5.5%) who were randomized to pioglitazone (45 mg/day) or placebo and followed for 2.4 years. Fasted plasma samples were analyzed at baseline and study end for AHB, LGPC, insulin, HbA1c and Matsuda index.
A method for measuring each of the biomarkers listed in Table 4 in EDTA human plasma was developed. Human plasma samples were spiked with internal standards and subjected to protein precipitation as described below. Following centrifugation, the supernatant was removed and injected onto a Waters Acquity/Thermo Quantum Ultra LC-MS-MS system using four different chromatographic systems (column/mobile phase combinations).

## CC[C@H](O)C(=O)O [AHB, 2-hydroxybutyrate]
INS-1e cells
  effect on glucose-stimulated insulin release (ratio of insulin in supernatant to cellular insulin content): inhibited the glucose stimulated release of insulin
INS-1e cells; listed as 2-hydroxybutyrate
  effect on glucose-stimulated insulin release (ratio of insulin in supernatant to cellular insulin content): inhibitory effect

## CCCCC/C=C\C/C=C\CCCCCCCC(=O)OC[C@@H](O)COP(=O)([O-])OCC[N+](C)(C)C [LGPC, linoleoyl lysophosphatidylcholine]
INS-1e cells
  effect on glucose-stimulated insulin release (ratio of insulin in supernatant to cellular insulin content): stimulated the glucose stimulated release of insulin
INS-1e cells; listed as Linoleoyl-GPC
  effect on glucose-stimulated insulin release (ratio of insulin in supernatant to cellular insulin content): stimulatory effect

## CCc1ccc(CCOc2ccc(CC3SC(=O)NC3=O)cc2)nc1 (stereo not drawn) [PIO, pioglitazone]
[1]; p<0.005
  Fold change of Linoleoyl-GPC Before and after PIO: 1.21 ↑
[1]; p=0.001
  Fold change of α-HB Before and after PIO: 0.90 ↓

— patent US10302663B2, “Method of assessing pancreatic beta-cell function” (METABOLON, INC., priority 2011, dated 2019)
